The test addresses BTK (Homo sapiens, UniProt Q06187). Put plainly: biochemical. The settings on record: read-out: BTK inhibition (%), 0.75 uM BTK, […] probe 3l, 15 min preincubation.

Molecules are shown by their SMILES.

Inhibition data for 30 compounds are collected here from paper PMC8041284, “Tunable Methacrylamides for Covalent Ligand Directed Release Chemistry” (Journal of the American Chemical Society, 2021).

Broadly, the inhibition is the relative decrease from the control value, in per cent.

Sequence of BTK (Q06187 402-655 limits assumed): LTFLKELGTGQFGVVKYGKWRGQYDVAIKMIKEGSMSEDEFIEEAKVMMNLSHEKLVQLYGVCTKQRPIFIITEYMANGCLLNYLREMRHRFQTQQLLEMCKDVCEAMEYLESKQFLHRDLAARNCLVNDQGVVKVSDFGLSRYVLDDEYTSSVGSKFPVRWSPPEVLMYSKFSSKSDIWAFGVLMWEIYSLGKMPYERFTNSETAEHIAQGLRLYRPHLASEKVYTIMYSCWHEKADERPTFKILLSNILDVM

Take `CCN1CCN(C(=O)N[C@@H](C(=O)N[C@@H]2C(=O)N3C(C(=O)O)=C(CSc4nnnn4C)CS[C@H]23)c2ccc(O)cc2)C(=O)C1=O` [PCM-0085943]: the inhibition at 10 µM was -12.5%.

Take `Clc1ccc(CCC(Cn2ccnc2)Sc2c(Cl)cccc2Cl)cc1` (stereo not drawn) [PCM-0085946]: the inhibition at 10 µM stood at 37.4%.

Consider `CCN(CC)C(=O)/C(C#N)=C/c1cc(O)c(O)c([N+](=O)[O-])c1` [PCM-0085960], for which the inhibition at 10 µM came out at 38.1%.

For the compound `NC(=O)c1cccnc1` [PCM-0085961], the inhibition at 10 µM was 12.5%.

As for `Cc1cn([C@H]2C[C@H](N=[N+]=[N-])[C@@H](CO)O2)c(=O)[nH]c1=O` [PCM-0085965], the inhibition at 10 µM is -3.1%.

With `Cc1noc(NS(=O)(=O)c2ccc(N)cc2)c1C` [PCM-0085967], the inhibition at 10 µM is 10.9%.

Regarding `Nc1ccn([C@@H]2CS[C@H](CO)O2)c(=O)n1` [PCM-0085971], the inhibition at 10 µM worked out at 14%.

With `O=C(O)CCCC[C@@H]1SC[C@@H]2NC(=O)N[C@@H]21` [PCM-0085973], the inhibition at 10 µM was 0%.

As for `C#Cc1cccc(Nc2ncnc3cc(OCCOC)c(OCCOC)cc23)c1` [PCM-0085975], the inhibition at 10 µM turned out to be 1.7%.

For the compound `NC(=O)N/N=C/c1ccc([N+](=O)[O-])o1` [PCM-0085977], the inhibition at 10 µM was found to be 0.8%.

Turning to `C[C@@H]1C[C@H]2[C@@H]3CCC4=CC(=O)C=C[C@]4(C)[C@@]3(Cl)[C@@H](O)C[C@]2(C)[C@@]1(OC(=O)c1ccco1)C(=O)CCl` [PCM-0085978], the inhibition at 10 µM came out at 40%.

For `CCCc1cc(=O)[nH]c(=S)[nH]1` [PCM-0085981], the inhibition at 10 µM stood at 3.1%.

Consider `CCOC(=O)C1=C(C)NC(C)=C(C(=O)OCC)C1c1ccccc1/C=C/C(=O)OC(C)(C)C` [PCM-0085989], for which the inhibition at 10 µM worked out at 16.3%.

Regarding `NS(=O)(=O)c1cc(C(=O)O)c(NCc2ccco2)cc1Cl` [PCM-0085991], the inhibition at 10 µM was -2.3%.

For `COc1cc(OC)c(C(=O)CCCN2CCCC2)c(OC)c1` [PCM-0085999], the inhibition at 10 µM is -12.5%.

On to `CC(=O)OCC(=O)NCCCOc1cccc(CN2CCCCC2)c1` [PCM-0086003], for which the inhibition at 10 µM was -3.4%.

Turning to `CC(C)[C@H](N)C(=O)OCCOCn1cnc2c(=O)[nH]c(N)nc21` [PCM-0086005], the inhibition at 10 µM was -7.8%.

Consider `COc1cc(N)c(Cl)cc1C(=O)N[C@H]1CCN(CCCOc2ccc(F)cc2)C[C@H]1OC` [PCM-0086006], for which the inhibition at 10 µM came out at 13.2%.

On to `C=C1/C(=C\C=C2/CCC[C@]3(C)[C@@H]([C@H](C)CCCC(C)C)CC[C@@H]23)C[C@@H](O)C[C@@H]1O` [PCM-0086012], for which the inhibition at 10 µM is -3.1%.

For the compound `COc1ccc2c3c1O[C@H]1C[C@@H](O)C=C[C@@]31CCN(C)C2` [PCM-0086015], the inhibition at 10 µM was -17.1%.

In the case of `CN1CCCC(n2nc(Cc3ccc(Cl)cc3)c3ccccc3c2=O)CC1` (stereo not drawn) [PCM-0086017], the inhibition at 10 µM worked out at 5.5%.

For `Nc1ncnc2c1ncn2[C@@H]1O[C@H](COP(=O)(O)O)[C@@H](O)[C@H]1O` [PCM-0086027], the inhibition at 10 µM was -23.2%.

`Cc1cccn2c(=O)c(-c3nnn[nH]3)cnc12` [PCM-0086031]: the inhibition at 10 µM was -17%.

For the compound `COc1cccc2c1C(=O)c1c(O)c3c(c(O)c1C2=O)C[C@@](O)(C(=O)CO)C[C@@H]3O[C@H]1C[C@H](N)[C@H](O)[C@H](C)O1` [PCM-0086032], the inhibition at 10 µM was found to be 42.8%.

As for `CCOC(=O)n1ccn(C)c1=S` [PCM-0086034], the inhibition at 10 µM was -17.1%.

As to `CCOCCn1c(N2CCCN(C)CC2)nc2ccccc21` [PCM-0086037], the inhibition at 10 µM was found to be 2.3%.

Consider `CC[C@H](C)C(=O)O[C@H]1C[C@@H](C)C=C2C=C[C@H](C)[C@H](CC[C@@H]3C[C@@H](O)CC(=O)O3)[C@H]21` [PCM-0086045], for which the inhibition at 10 µM is 9.3%.

In the case of `Cn1nnc2c(C(N)=O)ncn2c1=O` [PCM-0086047], the inhibition at 10 µM was -4.1%.

`NC(=O)N1c2ccccc2CC(=O)c2ccccc21` [PCM-0086055]: the inhibition at 10 µM was -10.1%.

In the case of `CCN[C@H]1CN(CCCOC)S(=O)(=O)c2sc(S(N)(=O)=O)cc21` [PCM-0086056], the inhibition at 10 µM was -11.7%.
